Laboratory results as given in publication PMC4710668, “Bioactivation of food genotoxicants 5-hydroxymethylfurfural and furfuryl alcohol by sulfotransferases from human, mouse and rat: a comparative study” (Archives of Toxicology, 2014).

Experiments:
male B6C3F1 mice = conditions: 32 ppm FFA in the air (equivalent to 60 mg FFA/kg bw/day), ref National Toxicology Program [1999]; cited from earlier work
[1] = system: S. typhimurium TA100 strains expressing different SULT forms; conditions: ref Glatt et al. [2012]; cited from earlier work
rSult2a4 = experiment: FFA sulfoconjugation assay (N6-MF-A formation with adenosine as scavenger); type: biochemical, rat
Description: Cytosolic fractions containing individual SULT forms were prepared from transgenic S. typhimurium TA1538. Table S1 in the Supplementary Material provides a summary of the thirty SULTs used in the current study together with references describing the cloning of the respective S. typhimurium TA1538 strains. The expressed SULT forms are denoted with the prefixes h, m and r for human, mouse and rat enzymes, respectively. Bacteria were grown in Luria Broth medium containing ampicillin (100 µg/ml) by stirring for 8 h at 200 revolutions/min at 37 °C. The bacterial suspensions were centrifuged at 5,000 g for 10 min. The sediments were washed twice with 25 ml of 10 mM potassium phosphate buffer (pH 7.4)/50 mM potassium chloride (KCP buffer) and centrifuged again. The pellets were taken up in 800 µl KCP buffer and sonicated thrice for 15 s with 30 s pauses in between. The soluble fraction was attained by centrifuging for 1 h at 100,000 g. The supernatants (in the following termed cytosolic preparations) were frozen at −80 °C. The protein concentrations were determined according to a bicinchoninic acid (BCA) assay protocol. […]
The ribonucleoside adduct N ^6-((furan-2-yl)methyl)-adenosine (N ^6-MF-A) was analyzed by isotope-dilution UPLC-MS/MS with the same system described above using a HSS T3 column (1.8 µm, 2.1 × 100 mm, Waters). […] The fragmentations of N ^6-MF-A into the aglycone cation [N ^6-((furan-2-yl)methyl)-adenine-H]^+ (m/z = 348.1 → 216.1), the cleavage of the 2-methylfuranyl cation (m/z = 348.1 → 81.0) and the release of [N ^6-methyl-adenine-H]^+ (m/z = 348.1 → 148.0) were monitored together with the corresponding fragmentations of the isotope-labeled internal standard [^15N5]N ^6-MF-A for the formation of the aglycone (m/z = 353.1 → 221.1), the 2-methylfuran cation (m/z = 353.1 → 81.0) and ^15N5-labeled N ^6-methyl-adenine (m/z = 353.1 → 153.0). The N ^6-MF-A content of the incubation mixture was calculated from the ratio of peak areas resulting from the total ion current of all three MRM signals of the analyte. […]

[2] = parameters: method as in Monien et al. [2009]; conditions: 100 mg HMF/kg body weight administered to mice; ref Monien et al. [2009]; cited from earlier work
female B6C3F1 mice = experiment: Two-year bioassay of HMF, oral administration; type: in vivo; conditions: 70 kg human body weight, uptake 4–30 mg per person

Structure (SMILES): OCc1ccco1 [FFA, furfuryl alcohol]
- carcinogenic effect (male B6C3F1 mice): induced renal tubule neoplasms
- mutagenicity in SULT-expressing strains [1]: highest mutagenicity of FFA was observed in bacteria expressing hSULT1A1, 1C2 and mSult1a1
- Rate of N6-MF-A formation (rSult2a4; 0.1 mM FFA): <18 fmol N ^6-MF-A/mg/min
- Rate of N6-MF-A formation (rSult2a4; 1 mM FFA): <20 fmol N ^6-MF-A/mg/min
- Rate of N6-MF-A formation (rSult2a4; 10 mM FFA): <44 fmol N ^6-MF-A/mg/min

Structure (SMILES): O=Cc1ccc(CO)o1 [HMF, 5-Hydroxymethylfurfural]
- fraction of dose converted to SMF [2]: 500 ppm
- mutagenicity in SULT-expressing strains [1]: small, were detectable in those strains that expressed hSULT1A1, 1A3 and 1C2 as well as mSult1a1 and 1d1
- margin between carcinogenic dose (188 mg/kg) and human HMF uptake (female B6C3F1 mice): 440- to 3,300 fold
